Assay results: patent US10537563B2, “Methods for treating ocular disease using inhibitors of CSF-1R” (NOVARTIS AG, priority 2016, dated 2020)

Key:
retinal F4/80+ cells = assay: Cellular infiltration assay in laser CNV model, retinal F4/80+ macrophages; type: in vivo, mouse
Method: (§1) In one experiment, Compound (Ia) or vehicle was dosed orally at 30, 100 or 200 mg/kg starting about 1 hour before laser and continued administration daily until the day before tissue harvest.
(§2) In a second experiment, mice were dosed daily with 50 mg/kg of Compound (Ia) and with i.p. injections of a mouse anti-VEGF antibody at a dose of 0.3 mg/kg at day 0, 2 and 4. Other groups of mice in the experiment were dosed with monotherapy of Compound (Ia) or the anti-VEGF antibody at higher doses.
(§3) Cellular infiltration into the retina, the PEC or the CNV lesion was assessed after laser application. Eyes were fixed with 4% Paraformaldehyde for ˜90 minutes. After fixation, whole eyes were dissected into the retina and PEC. […]
(§4) Iba1+ cells in the PEC peripheral to the CNV lesion were counted using a different semi-automatic MatLab code. […] The operator is then presented with masked, randomized images and allowed the functionality to remove miscellaneous fluorescence (false positive) and add missed cells (false negative) to the analysis. Confluent microglia cells and CNV lesions were excluded from the quantification analysis. In a study, each assessed condition consisted of 10 eyes from 5 mice and would typically yield 10 data points. […] F4/80+ cells in the retina were counted using a similar semi-automatic MatLab code and followed the same procedure as above. […]

subretinal Iba1+ cells = assay: Cellular infiltration assay in laser CNV model, subretinal Iba1+ microglia; type: in vivo, mouse
Method: as §1, §2, §3, §4

VEGF = assay: Interaction with VEGF versus CSF-1 receptor signaling; details: at concentrations where the signaling of the CSF-1 receptor is strongly or completely inhibited
[1] = test system: macrophages in areas around the ciliary body; assay: Macrophages around the ciliary body in CX3CR1-GFP reporter mice; type: in vivo, mouse; details: salt of Compound (Ia), oral 200 mg/kg daily for 14 days
Method: To investigate the effects of CSF-1R inhibition on inflammation, Compound (Ia) was assessed in CX3CR1-GFP reporter mice (which report on macrophage and microglia). The presence of macrophages in areas around the ciliary body in the front of the eye (but not in the cornea) was examined and confirmed by anti-GFP immunohistochemistry staining (see panels (a) and (b) in FIG. 4). The arrow-indicated dots are the positive stained macrophage cells).
In this experiment, mice was treated with a salt of Compound (Ia) orally at 200 mg/kg daily for 14 days and immediately examined for the presence of macrophages (see panels (c) and (d) in FIG. 4).

[2] = test system: choroidal neovascularization; assay: Laser-induced choroidal neovascularization model, CNV area; type: in vivo, mouse; details: oral daily, 30, 100 or 200 mg/kg, dose dependent; tissues harvested day 7
Method: To investigate the effects of CSF-1R inhibition on ocular angiogenesis and inflammation, Compound (Ia) was assessed in a rodent model of laser-induced choroidal neovascularization (methods below) for effect on blood vessel growth and cellular infiltration after a laser injury. Compound (Ia) was assessed either as a monotherapy or in combination with a suboptimal dose of a VEGF antibody.
as §1, §2
Mouse pupils were dilated with one drop (˜40 μL) of 1% cyclopentolate. Just before anesthesia, pupil dilation was maximized with an additional drop of phenylephrine (usually 10% but occasionally 2.5% depending upon availability). […]
Analysis of neovascularization was completed on tissues harvested 7 days after laser photocoagulation. […] CNV area was quantified using a semi-automated analysis program (Axiovision software version 4.5, Carl Zeiss Microscopy) that outlined the fluorescent blood vessels. […]

SMILES | reduction in retinal F4/80+ cells (macrophages) (retinal F4/80+ cells; 200 mg/kg oral) | macrophages in the retina (retinal F4/80+ cells; 50 and 200 mg/kg) | reduction in subretinal Iba1+ cells (microglia) (subretinal Iba1+ cells; 200 mg/kg oral) | microglia in the subretinal space (subretinal Iba1+ cells; 50 and 200 mg/kg) | interaction with VEGF (VEGF) | macrophages in areas around the ciliary body, day 14 ([1]; day 14) | macrophages in areas around the ciliary body, day 21 ([1]; day 21) | macrophages in areas around the ciliary body, day 44 ([1]; day 44) | reduction in CNV area compared to vehicle [2]
CNC(=O)c1cc(Oc2ccc3nc(N[C@@H]4CCCC[C@H]4O)sc3c2)ccn1 [Compound (Ia), 4-((2-(((1R,2R)-2-hydroxycyclohexyl)amino)benzo[d]thiazol-6-yl)oxy)-N-methylpicolinamide] | 83-84% | significantly reduced | 66-99% | significantly reduced | not to interact strongly | depleted | started to return | almost back to steady state | 75%
CNC(=O)c1cc(Oc2ccc3nc(N[C@H]4CCCC[C@@H]4O)sc3c2)ccn1 [Compound (Ib), 4-((2-(((1S,2S)-2-hydroxycyclohexyl)amino)benzo[d]thiazol-6-yl)oxy)-N-methylpicolinamide] | – | – | – | – | not to interact strongly | – | – | – | –
